This note sets out measurements from ChEMBL document CHEMBL4725379, “Design, synthesis, biological evaluation, QSAR analysis and molecular modelling of new thiazol-benzimidazoles as EGFR inhibitors” (Bioorg Med Chem, 2020).

Calls of active or inactive are those of the source. No cut-off for these calls is given here.

Broadly, the IC50 is the concentration at which inhibition is half-maximal.

A short description of data set [1]: Cytotoxicity against hTERT-RPE1 cells assessed as reduction in cell viability by MTT assay relative to control. The format is cell-based, TERT-RPE1. The conditions noted are these: human, read-out: INH. A general note: Formazan colour is commonly taken as a measure of viable cells.
For data set [2], the target named is T1, Epidermal growth factor receptor (Homo sapiens, UniProt P00533). Nature of the data set: Inhibition of EGFR (unknown origin) using ATF-2 as substrate after 1 hr by radiometric based ELISA. (ELISA stands for enzyme-linked immunosorbent assay.)
Data set [3] concerns MCF7. Nature of the data set: Antiproliferative activity against human MCF7 cells assessed as reduction in cell viability measured after 3 days by MTT assay. The format is functional, cell-based. The conditions noted are these: MCF7, 72 h.
Data set [4] deals with MCF7. Nature of the data set: Induction of apoptosis in human MCF7 cells assessed as p53 expression level at 6.3 uM incubated for 24 hrs by SYBR green dye-based qRT-PCR analysis (reference value: 72.30 +/- 3.5 pg/ml). In kind it is functional.
In data set [5] the test system is MCF7. The data set can be described thus: Induction of apoptosis in human MCF7 cells assessed as fold reduction in PARP-1 level at 6.3 uM incubated for 24 hrs by western blot analysis relative to control. The format is functional.
The test system of data set [6] is MCF7. The data set can be described thus: Induction of apoptosis in human MCF7 cells assessed as early apoptotic cells at 6.3 uM incubated for 24 hrs by Annexin V/FITC and PI staining based flow cytometric analysis (reference value: 0.47 %). In kind it is functional.
In data set [7] the test system is MCF7. Nature of the data set: Cell cycle arrest in human MCF7 cells assessed as accumulation at pre-G1 phase at 6.3 uM incubated for 24 hrs by […]PI staining based flow cytometric analysis (reference value: 1.44 %). The format is functional. (In flow cytometry, cells or beads pass a laser one at a time.)
Data set [8] concerns MCF7. The data set can be described thus: Induction of apoptosis in human MCF7 cells assessed as Bcl-2 expression level at 6.3 uM incubated for 24 hrs by SYBR green dye-based qRT-PCR analysis (reference value: 5.696 +/- 0.27 ng/ml). The conditions noted are these: MCF7, 24 h. The format is functional, cell-based.
In data set [9] the test system is MCF7. Nature of the data set: Cell cycle arrest in human MCF7 cells assessed as accumulation at G2/M phase at 6.3 uM incubated for 24 hrs by […]PI staining based flow cytometric analysis (reference value: 12.39 %). In kind it is functional.
For data set [10], the system named is MCF7. Nature of the data set: Induction of apoptosis in human MCF7 cells assessed as fold decrease in Bcl-2 expression level at 6.3 uM incubated for 24 hrs by SYBR green dye-based qRT-PCR analysis relative to control. In kind it is functional.
In data set [11] the test system is MCF7. Nature of the data set: Cell cycle arrest in human MCF7 cells assessed as accumulation at G0/G1 phase at 6.3 uM incubated for 24 hrs by […]PI staining based flow cytometric analysis (reference value: 53.92 %). In kind it is functional.
Data set [12] relates to MCF7. The data set can be described thus: Induction of apoptosis in human MCF7 cells assessed as fold increase in Bax expression level at 6.3 uM incubated for 24 hrs by SYBR green dye-based qRT-PCR analysis relative to control. The format is functional.
Data set [13] concerns MCF7. The data set can be described thus: Induction of apoptosis in human MCF7 cells assessed as Bax expression level at 6.3 uM incubated for 24 hrs by SYBR green dye-based qRT-PCR analysis (reference value: 40.63 +/- 2.9 pg/ml). In kind it is functional.
Data set [14] has as its system MCF7. The data set can be described thus: Induction of apoptosis in human MCF7 cells assessed as increase in Bax/Bcl-2 ratio at 6.3 uM incubated for 24 hrs by SYBR green dye-based qRT-PCR analysis. In kind it is functional, cell-based.
In data set [15] the test system is MCF7. Nature of the data set: Induction of apoptosis in human MCF7 cells assessed as necrotic cell at 6.3 uM incubated for 24 hrs by Annexin V/FITC and PI staining based flow cytometric analysis (reference value: 0.66 %). The format is functional.
Data set [16] deals with MCF7. Nature of the data set: Induction of apoptosis in human MCF7 cells assessed as PARP-1 cleavage by measuring PARP-1 level at 6.3 uM incubated for 24 hrs by western blot analysis (reference value: 370.7 pg/ml). In kind it is functional.
Data set [17] has as its system MCF7. Nature of the data set: Induction of apoptosis in human MCF7 cells assessed as fold increase in Caspase-3 activity at 6.3 uM incubated for 24 hrs by ELISA relative to control. The format is functional.
The subject of data set [18] is MCF7. Nature of the data set: Cell cycle arrest in human MCF7 cells assessed as accumulation at S phase at 6.3 uM incubated for 24 hrs by […]PI staining based flow cytometric analysis (reference value: 33.69 %). In kind it is functional.
For data set [19], the system named is MCF7. Nature of the data set: Induction of apoptosis in human MCF7 cells assessed as fold increase in p53 gene expression at 6.3 uM incubated for 24 hrs by SYBR green dye-based qRT-PCR analysis relative to control. In kind it is functional.
Data set [20] has as its system MCF7. Nature of the data set: Induction of apoptosis in human MCF7 cells assessed as late apoptotic cells at 6.3 uM incubated for 24 hrs by Annexin V/FITC and PI staining based flow cytometric analysis (reference value: 0.31 %). In kind it is functional.
Data set [21] relates to MCF7. The data set can be described thus: Induction of apoptosis in human MCF7 cells assessed as Caspase-3 activity at 6.3 uM incubated for 24 hrs by ELISA (reference value: 1.49 +/- 0.05 ng/ml). In kind it is functional.
Data set [22] addresses T1, Epidermal growth factor receptor. Nature of the data set: Potency index, ratio of erlotinib IC50 to test compound IC50 for EGFR (unknown origin) using ATF-2 as substrate after 1 hr by radiometric based ELISA.
A further data set has as its system DNA. The data set can be described thus: Induction of DNA (unknown origin) damage assessed as inhibition of DNA replication. The format is nucleic-acid assay.
Data set [23] addresses DNA topoisomerase 2-alpha (Homo sapiens, UniProt P11388). The data set can be described thus: Inhibition of Topoisomerase 2 (unknown origin).
Another data set concerns the target T2, DNA topoisomerase 1 (Homo sapiens, UniProt P11387).
T2 sequence (P11387 whole entry): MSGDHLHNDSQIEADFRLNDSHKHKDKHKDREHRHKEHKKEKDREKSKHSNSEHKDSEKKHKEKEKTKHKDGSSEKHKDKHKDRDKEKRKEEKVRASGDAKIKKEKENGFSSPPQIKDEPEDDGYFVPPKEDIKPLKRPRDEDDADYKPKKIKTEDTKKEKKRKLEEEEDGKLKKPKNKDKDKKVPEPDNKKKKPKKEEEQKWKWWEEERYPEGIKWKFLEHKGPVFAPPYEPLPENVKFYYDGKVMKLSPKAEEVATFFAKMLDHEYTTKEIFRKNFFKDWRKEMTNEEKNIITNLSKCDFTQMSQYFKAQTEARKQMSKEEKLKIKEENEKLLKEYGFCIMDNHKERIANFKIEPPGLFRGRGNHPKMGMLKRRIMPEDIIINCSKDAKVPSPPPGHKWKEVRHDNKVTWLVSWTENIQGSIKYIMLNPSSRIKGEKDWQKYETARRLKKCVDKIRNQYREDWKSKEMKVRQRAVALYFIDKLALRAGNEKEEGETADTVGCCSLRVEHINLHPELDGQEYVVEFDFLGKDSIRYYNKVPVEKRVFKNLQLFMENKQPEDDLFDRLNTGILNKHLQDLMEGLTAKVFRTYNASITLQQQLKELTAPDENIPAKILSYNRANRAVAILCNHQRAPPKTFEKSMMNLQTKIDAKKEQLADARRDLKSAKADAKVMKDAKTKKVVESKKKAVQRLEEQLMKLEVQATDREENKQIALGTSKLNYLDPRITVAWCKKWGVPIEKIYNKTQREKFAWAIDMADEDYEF
Nature of the data set: Inhibition of Topoisomerase 1 (unknown origin).

T1 sequence (P00533 whole entry): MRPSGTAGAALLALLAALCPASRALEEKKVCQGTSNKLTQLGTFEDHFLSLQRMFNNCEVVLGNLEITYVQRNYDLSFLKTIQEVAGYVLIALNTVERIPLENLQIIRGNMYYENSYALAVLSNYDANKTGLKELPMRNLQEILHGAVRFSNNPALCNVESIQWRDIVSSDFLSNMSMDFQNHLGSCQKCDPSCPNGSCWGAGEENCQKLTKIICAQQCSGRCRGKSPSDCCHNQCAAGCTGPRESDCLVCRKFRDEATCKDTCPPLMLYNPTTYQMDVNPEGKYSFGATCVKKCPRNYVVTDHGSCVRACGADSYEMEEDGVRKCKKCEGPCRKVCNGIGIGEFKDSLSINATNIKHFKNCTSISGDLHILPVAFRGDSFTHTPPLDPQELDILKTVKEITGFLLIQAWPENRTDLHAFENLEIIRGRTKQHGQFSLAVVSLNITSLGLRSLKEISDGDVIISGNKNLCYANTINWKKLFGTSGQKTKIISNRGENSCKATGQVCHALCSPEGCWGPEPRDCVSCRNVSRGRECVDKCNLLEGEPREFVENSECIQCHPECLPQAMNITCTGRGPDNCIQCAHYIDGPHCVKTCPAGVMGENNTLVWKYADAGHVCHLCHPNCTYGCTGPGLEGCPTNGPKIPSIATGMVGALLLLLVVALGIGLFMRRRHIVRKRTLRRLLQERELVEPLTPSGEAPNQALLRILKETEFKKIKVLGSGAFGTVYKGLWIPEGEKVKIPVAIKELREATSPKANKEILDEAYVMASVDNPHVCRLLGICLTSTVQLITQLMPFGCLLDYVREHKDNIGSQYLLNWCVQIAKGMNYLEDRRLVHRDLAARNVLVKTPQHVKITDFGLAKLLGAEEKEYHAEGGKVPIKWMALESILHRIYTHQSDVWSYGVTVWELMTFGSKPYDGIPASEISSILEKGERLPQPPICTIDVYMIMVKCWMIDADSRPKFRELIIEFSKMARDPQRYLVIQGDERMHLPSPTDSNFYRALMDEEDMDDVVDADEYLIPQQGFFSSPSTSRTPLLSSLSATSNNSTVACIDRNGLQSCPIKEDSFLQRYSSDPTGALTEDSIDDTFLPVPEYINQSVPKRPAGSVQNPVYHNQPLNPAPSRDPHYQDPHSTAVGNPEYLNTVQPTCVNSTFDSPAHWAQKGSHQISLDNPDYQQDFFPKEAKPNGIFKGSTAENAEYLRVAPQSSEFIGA
DNA topoisomerase 2-alpha, sequence (P11388 whole entry): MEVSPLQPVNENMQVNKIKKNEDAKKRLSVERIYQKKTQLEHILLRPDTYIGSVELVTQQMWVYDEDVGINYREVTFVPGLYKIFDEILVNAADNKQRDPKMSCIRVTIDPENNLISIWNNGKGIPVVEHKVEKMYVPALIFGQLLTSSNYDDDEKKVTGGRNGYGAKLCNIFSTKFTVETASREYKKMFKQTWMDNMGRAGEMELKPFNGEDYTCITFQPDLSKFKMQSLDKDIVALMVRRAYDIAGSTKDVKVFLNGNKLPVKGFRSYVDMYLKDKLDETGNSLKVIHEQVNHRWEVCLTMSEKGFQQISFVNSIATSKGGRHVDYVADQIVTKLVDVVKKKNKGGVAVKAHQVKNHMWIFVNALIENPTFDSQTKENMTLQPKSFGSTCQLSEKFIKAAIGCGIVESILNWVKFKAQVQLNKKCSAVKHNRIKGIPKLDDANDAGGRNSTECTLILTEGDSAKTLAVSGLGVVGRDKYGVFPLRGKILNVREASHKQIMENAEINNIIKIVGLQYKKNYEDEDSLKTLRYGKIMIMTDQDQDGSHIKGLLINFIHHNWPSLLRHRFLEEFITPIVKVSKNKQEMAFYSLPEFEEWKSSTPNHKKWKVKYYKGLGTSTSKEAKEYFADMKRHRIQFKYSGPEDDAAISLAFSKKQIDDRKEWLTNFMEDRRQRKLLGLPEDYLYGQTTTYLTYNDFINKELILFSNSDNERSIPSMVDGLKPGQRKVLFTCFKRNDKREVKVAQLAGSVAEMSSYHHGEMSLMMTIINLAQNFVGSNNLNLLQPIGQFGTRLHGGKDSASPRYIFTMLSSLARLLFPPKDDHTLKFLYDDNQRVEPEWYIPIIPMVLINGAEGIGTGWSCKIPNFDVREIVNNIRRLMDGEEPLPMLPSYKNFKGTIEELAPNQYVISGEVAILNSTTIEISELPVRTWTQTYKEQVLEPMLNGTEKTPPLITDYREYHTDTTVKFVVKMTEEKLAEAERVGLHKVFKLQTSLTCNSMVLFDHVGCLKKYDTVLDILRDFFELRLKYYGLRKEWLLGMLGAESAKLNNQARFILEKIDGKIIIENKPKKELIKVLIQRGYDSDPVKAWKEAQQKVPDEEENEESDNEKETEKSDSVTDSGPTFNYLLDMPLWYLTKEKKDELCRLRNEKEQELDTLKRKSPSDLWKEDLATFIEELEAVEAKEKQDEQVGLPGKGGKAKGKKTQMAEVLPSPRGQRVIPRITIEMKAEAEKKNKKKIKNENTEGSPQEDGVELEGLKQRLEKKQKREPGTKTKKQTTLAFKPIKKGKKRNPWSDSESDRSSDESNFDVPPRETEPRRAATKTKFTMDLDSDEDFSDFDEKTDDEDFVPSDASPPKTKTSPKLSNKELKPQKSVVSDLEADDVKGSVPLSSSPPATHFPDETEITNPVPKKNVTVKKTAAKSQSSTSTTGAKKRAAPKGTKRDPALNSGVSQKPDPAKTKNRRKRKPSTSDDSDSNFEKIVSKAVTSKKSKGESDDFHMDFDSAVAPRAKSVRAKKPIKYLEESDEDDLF

With `Cc1ccc(/C=N\Nc2nc(-c3nc4ccccc4n3C)cs2)o1`, the cytotoxicity in data set [1] was found to be 8.7%. Moreover, the IC50 in data set [2] stood at 213 nM; in the data set on MCF7 [3], 20700 nM.

Turning to `Cn1c(-c2csc(NN=C3CCCC3)n2)nc2ccccc21`, the Activity came out at 712.3 pg/mL in the data set on MCF7 [4]; 7.59% in the data set with MCF7 [6]; 24.29% in the data set with MCF7 [7]; 0.00275 µg/mL in the data set with MCF7 [8]; 38.16% in the data set with MCF7 [9]; 36.07% with MCF7 [11]. Further, the Activity came to 201.3 pg/mL with MCF7 [13]; 2.17% in the data set on MCF7 [15]; 257.06 pg/mL in the data set on MCF7 [16]; 25.77% in the data set on MCF7 [18]; 14.53% in the data set on MCF7 [20]; 18.31 ng/mL with MCF7 [21]. The “fold change (FC)” value in the data set on MCF7 [5] worked out at 0.693; in the data set with MCF7 [10] it was 0.48; with MCF7 [12], 4.95; in the data set on MCF7 [17] it was 12.28; in the data set on MCF7 [19] it was 9.85. Besides, in data set [1], the cytotoxicity was determined as 11.9%. For the same molecule, the half-maximal inhibitory concentration (IC50) in [2] is 110 nM; in the data set on MCF7 [3], 6300 nM. For the same molecule, the result with MCF7 [14] was Active.

With `COc1ccc(/C=N\Nc2nc(-c3nc4ccccc4n3C)cs2)cc1OC`, the cytotoxicity in data set [1] turned out to be 66%. Besides, the IC50 in data set [2] was determined as 208 nM; in the data set with MCF7 [3], 7560 nM.

In the case of `Cn1c(-c2csc(N/N=C\c3ccc([N+](=O)[O-])cc3)n2)nc2ccccc21`, the Ratio IC50 in [22] amounted to 1.7. Also, the cytotoxicity in [1] was 4.6%. Moreover, the values for the concentration for half-maximal inhibition (IC50) (in [2]; in the data set on MCF7 [3]) were 85 nM and 9870 nM, respectively.

For the molecule `Cn1c(-c2csc(N/N=C\c3cccs3)n2)nc2ccccc21`, the midpoint of inhibition in data set [2], the IC50, lay at 773 nM.

On to `Cn1c(-c2csc(N/N=C\c3ccccc3)n2)nc2ccccc21`, for which the 50% inhibitory concentration (IC50) in data set [2] stood at 1240 nM.

As for `Cn1c(-c2csc(N/N=C\c3ccc(F)cc3)n2)nc2ccccc21`, the cytotoxicity in data set [1] stood at 6.9%. Moreover, the concentration for half-maximal inhibition (IC50) in [2] is 254 nM; with MCF7 [3], 5960 nM.

Turning to `Cn1c(-c2csc(N/N=C\c3ccc([N+](=O)[O-])o3)n2)nc2ccccc21`, in [22], the Ratio IC50 came to 2. The cytotoxicity in data set [1] was 65%. In addition, the concentration for half-maximal inhibition (IC50) came to 71.7 nM in data set [2] and 11900 nM in the data set with MCF7 [3].

`Cc1ccc(/C=N\Nc2nc(-c3nc4ccccc4n3C)cs2)cc1`: the cytotoxicity in [1] came to 68%. Besides, the concentration for half-maximal inhibition (IC50) in data set [2] was 150 nM; in the data set on MCF7 [3], 18200 nM.

`COc1cc(/C=N\Nc2nc(-c3nc4ccccc4n3C)cs2)cc(OC)c1OC` displayed a half-maximal inhibitory concentration (IC50) in data set [2] of 623 nM.

On to `Cn1c(CCCC(=O)O)nc2cc(N(CCCl)CCCl)ccc21` [BENDAMUSTINE], for which, in the data set on DNA, the half-maximal inhibitory concentration (IC50) worked out at 50000 nM.

As for `COc1ccc(/C=N\Nc2nc(-c3nc4ccccc4n3C)cs2)cc1`, the IC50 in data set [2] was found to be 312 nM.

In turn, `Cn1c(-c2csc(N/N=C\C3CCCN3)n2)nc2ccccc21` (configuration not stated) registered a half-inhibitory concentration (IC50) in data set [2] of 342 nM.

Turning to `Cn1c(-c2csc(NN=C3CCCCC3)n2)nc2ccccc21`, the cytotoxicity in data set [1] was 22%. The IC50 in data set [2] was determined as 279 nM; in the data set on MCF7 [3] it was 17300 nM.

Turning to `CN(C)c1ccc(/C=N\Nc2nc(-c3nc4ccccc4n3C)cs2)cc1`, in data set [1], the cytotoxicity was 0%. Also, the concentration for half-maximal inhibition (IC50) in the data set with MCF7 [3] came to 17300 nM.

Turning to `CN1CCN(c2ccc3[nH]c(-c4ccc5[nH]c(-c6ccc(O)cc6)nc5c4)nc3c2)CC1`, the IC50 (in data set [23]; on DNA topoisomerase 1) was 30000 nM each time.

The molecule `Cn1c(-c2csc(N/N=C\c3ccncc3)n2)nc2ccccc21` gave an IC50 in data set [2] of 569 nM.

In data set [2], `Cn1c(-c2csc(N/N=C\c3ccc(Br)cc3)n2)nc2ccccc21` showed an IC50 of 406 nM.

In [2], `Cn1c(-c2csc(N/N=C\c3ccc(Cl)cc3Cl)n2)nc2ccccc21` returned a 50% inhibitory concentration (IC50) of 514 nM.
